Tested on: UCP1 and DIO2 expression in differentiated hBA
Assay: Q-RT-PCR for UCP1 and DIO2 in differentiated hBA treated with norepinephrine or browning agents
Assay type: cell-based, human
Details: hBAs from subject 2; 1 uM norepinephrine (NE) for 4 h
Method: FIG. 4A depicts total cellular respiration rate (OCR) measured using the Seahorse extracellular flux analyzer in differentiated hWA and hBA from Sub1 and Sub2 that were treated for 4 h with 10 uM forskolin (Fsk). The same number of cells was used in the assay. Data are presented as mean±s.e.m. (n=10; two-tailed Student's t-test; *P<0.05, **P<0.01, ***P<0.001). A representative experiment from a total of three independent studies is shown. FIG. 4B depicts Q-RT-PCR analysis for UCP1 and DIO2 expression in differentiated hWA and hBA from Sub1 and Sub2 that were treated for 48 h with 3.3 nM BMP7, 3.3 nM BMP8 and 50 nM FGF21. Data are presented as a fold change compared to vehicle treatment of hWA in each subject (mean±s.e.m., n=3; two-tailed Student's t-test; *P<0.05, **P<0.01, ***P<0.001). A representative experiment from a total of three independent studies is shown. […]
RNA extraction, cDNA synthesis, and quantitative real-time PCR (Q-RT-PCR) were performed as described before (Cypess, A. M., et al. Nat Med 19, 635-639, 2013; Tseng, Y. H., et al. Nature 454, 1000-1004, 2008). Q-RT-PCR assays were run in duplicates and quantified in the ABI Prism 7900 sequence-detection system using SYBR (Roche Applied Science, Indianapolis, Ind.). Relative mRNA expression was determined by the delta-Ct method and the values were normalized to the expression of 18S ribosomal RNA (18s).

NC[C@H](O)c1ccc(O)c(O)c1 [norepinephrine]
levels of UCP1 and DIO2: increasing the levels of UCP1 and DIO2

Reference: patent publication US11078259B2, “Methods and compositions for promoting thermogenic potential” (Joslin Diabetes Center, Inc., priority 2015, dated 2021)
